Source: patent publication US20260137700A1, “PHARMACEUTICAL COMBINATION OF PRMT5 INHIBITOR AND DNA DAMAGE-INDUCING SUBSTANCE” (SK Biopharmaceuticals Co., Ltd., priority 2022, published 2026)

Columns and labels:
[1] = system: human pancreatic cancer cells CAPAN-1; test: Subcutaneous xenograft mouse model of CAPAN-1 pancreatic cancer cells, tumor volume; format: in vivo; details: Day 31, solvent group 1,017 mm^3
Protocol: For in vivo efficacy studies in a subcutaneous xenograft mouse model of human pancreatic cancer cells CAPAN-1, co-administration of compound-87 as a PRMT5 inhibitor according to one example of the present invention and Gemcitabine as an anti-metabolite of a chemotherapeutic agent, was performed.
To produce a pancreatic cancer xenograft model, 5 million CAPAN-1 cells were injected subcutaneously into the right flank of female nude mice, and tumor growth was monitored.
To evaluate the anticancer effect, when the tumor volume reached approximately 185 mm^3 on average, the mice were divided into six groups. The all group included the solvent-treated group (vehicle group), the compound-87 monotherapy group (25 mg/kg or 50 mg/kg), the gemcitabine monotherapy group (50 mg/kg), combination therapy group of the compound-87 (25 mg/kg or 50 mg/kg), and the gemcitabine. The vehicle A group or the compound-87 treatment group was administered orally on a 3-day administration/4-day non-administration schedule, and the vehicle B group or the gemcitabine treatment group was administered intraperitoneally twice a week.

[2] = system: symmetric dimethyl arginine (SDMA); test: In vivo target inhibition: SDMA ELISA in tumor samples of the Mia PaCa-2 xenograft mouse model
Protocol: Quantitative reduction levels of symmetric dimethyl arginine (SDMA) in tumor samples harvested from a subcutaneous xenograft mouse model of Mia PaCa-2 were measured by enzyme-linked immunosorbent assay (ELISA).
Reagents: Bradford solution (catalog no. 500-0006) was purchased from Bio-rad (USA). SDMA antibody (catalog no. 13222s) was purchased from Cell signaling Technology (USA). SmD3 antibody (catalog no. ap12451a) was purchased from Abgent (USA). Secondary antibody (catalog no. ab6721) and TMB substrate (catalog no. ab210902) were purchased from Abcam (UK).
Experimental procedure: Tumor tissue transplanted into mice was extracted, cells were lysed, and quantified with Bradford solution. […] of protein per sample was diluted with carbonate-bicarbonate buffer, dispensed into a 96-well plate, and reacted at room temperature for 2 hours. After washing three times with phosphate-buffered saline (PBST) containing 0.05% Tween-20, 200 μL of PBST containing 5% bovine serum albumin (BSA) (BSA-PBST) was added, and reacted at room temperature for 2 hours. After washing three times with PBST, 100 μL of SDMA antibody and SmD3 antibody were diluted in BSA-PBST, each was dispensed, and reacted overnight at 4° C. After washing three times with PBST on next day, 100 μL of secondary antibody diluted in BSA-PBST was added, and reacted at room temperature for 1 hour. After washing three times with PBST, 100 μL of TMB substrate was added and reacted at room temperature for 10-20 minutes, and 100 μL of 1N sulfuric acid solution was added to terminate the reaction. Then, the degree of SDMA inhibition by the compound was calculated by measuring the absorbance at 450 nm.

[3] = system: CTG-1932, a human non-small cell lung cancer patient-derived cell line; test: Subcutaneous xenograft mouse model of patient-derived CTG-1932 non-small cell lung cancer, tumor growth inhibition; format: in vivo; details: day 9
Protocol: For in vivo efficacy studies in a subcutaneous xenograft mouse model of CTG-1932, a human non-small cell lung cancer patient-derived cell line, combination therapy of compound-87 as a PRMT5 inhibitor according to one example of the present invention and with paclitaxel as a chemotherapy agent, was performed at Champions Oncology (USA).
To produce a non-small cell lung cancer xenograft model, CTG-1932 tumor stock was grown and harvested from primary mice and then transplanted subcutaneously into the left flank of immunocompromised female mice as a 5×5×5 mm^3 tumor fragment. When the tumor volume reached approximately 150-300 mm^3, the mice were separated into four groups of 10 each. All group consisted of a solvent-treated group (vehicle group), a compound-87 monotherapy group (50 mg/kg, oral administration, 3 days on/4 days off), a paclitaxel monotherapy group (20 mg/kg, intraperitoneal administration once a week), and combination treatment group of compound-87 (50 mg/kg, oral administration, 3 days on/4 days off) and paclitaxel (20 mg/kg, intraperitoneal administration once a week). tumor volume and body weight were measured twice a week.

CN1CCC(Oc2ccc3c(c2)OCCN(C[C@H](O)CN2CCc4ccccc4C2)C3=O)CC1 [Compound-87, 4-[(2R)-3-(3,4-dihydro-1H-isoquinolin-2-yl)-2-hydroxy-propyl]-8-[(1-methyl-4-piperidyl)oxy]-2,3-dihydro-1,4-benzoxazepin-5-one] was tested, and the tumor volume ([1]; Compound-87 25 mg/kg oral (3 days on/4 off) in combination with gemcitabine 50 mg/kg i.p. twice a week) was 379 mm^3, the tumor volume ([1]; Compound-87 50 mg/kg oral (3 days on/4 off) in combination with gemcitabine 50 mg/kg i.p. twice a week) was 235 mm^3 and the “SDMA amount in tumor samples compared to the vehicle group” value ([2]; 25 mg/kg Compound-87, 3 days on/4 off for 24 days) was 37.4%. The “SDMA amount in tumor samples compared to the vehicle group” value ([2]; 50 mg/kg Compound-87, 3 days on/4 off for 24 days) was 27.7%, the inhibition at 25 mg/kg ([2]; Mus musculus, MIA PaCa-2, 25 mg/kg Compound-87, 3 days on/4 off for 24 days) was 62.6% and the inhibition at 50 mg/kg ([2]; Mus musculus, MIA PaCa-2, 50 mg/kg Compound-87, 3 days on/4 off for 24 days) was 72.3%. For the same compound, the “tumor growth inhibition compared to the solvent-treated group” value ([3]; compound-87 50 mg/kg oral single agent, 3 days on/4 off, not significant) was 39% and the “tumor growth inhibition compared to the solvent-treated group” value ([3]; compound-87 50 mg/kg oral together with paclitaxel 20 mg/kg i.p. once a week) was 89%.
